From ChEMBL document CHEMBL5303573, “Mapping human microbiome drug metabolism by gut bacteria and their genes” (Nature, 2019)

What was measured:
[1] = The drug is tested on Clostridium scindens strain: ATCC35704 for biotransformation. The drug concentrations were measured before and after a 12-h incubation by liquid-chromatography-coupled mass spectrometry (LC–MS); conditions: 2 µM
[2] = segatella copri, 12 h, 2 µM
Description: The drug is tested on Prevotella copri strain: DSM18205 for biotransformation. The drug concentrations were measured before and after a 12-h incubation by liquid-chromatography-coupled mass spectrometry (LC–MS)

[3] = The drug is tested on Bacteroides finegoldii strain: DSM17565 for biotransformation. The drug concentrations were measured before and after a 12-h incubation by liquid-chromatography-coupled mass spectrometry (LC–MS); conditions: 2 µM
[4] = bacteroides eggerthii, 12 h, 2 µM
Description: The drug is tested on Bacteroides eggerthii strain: DSM20697 for biotransformation. The drug concentrations were measured before and after a 12-h incubation by liquid-chromatography-coupled mass spectrometry (LC–MS)

[5] = The drug is tested on Enterococcus faecalis strain: V583 for biotransformation. The drug concentrations were measured before and after a 12-h incubation by liquid-chromatography-coupled mass spectrometry (LC–MS); conditions: 2 µM
[6] = The drug is tested on Clostridium symbiosum strain: ATCC14940 for biotransformation. The drug concentrations were measured before and after a 12-h incubation by liquid-chromatography-coupled mass spectrometry (LC–MS); conditions: 2 µM
[7] = The drug is tested on Escherichia coli strain: BW25113 for biotransformation. The drug concentrations were measured before and after a 12-h incubation by liquid-chromatography-coupled mass spectrometry (LC–MS); conditions: 2 µM
[8] = The drug is tested on Bacteroides caccae strain: ATCC43185 for biotransformation. The drug concentrations were measured before and after a 12-h incubation by liquid-chromatography-coupled mass spectrometry (LC–MS); conditions: 2 µM
[9] = The drug is tested on Eubacterium rectale strain: ATCC33656 for biotransformation. The drug concentrations were measured before and after a 12-h incubation by liquid-chromatography-coupled mass spectrometry (LC–MS); conditions: agathobacter rectalis, 2 µM
[10] = The drug is tested on Bacteroides cellulosilyticus strain: DSM14838 for biotransformation. The drug concentrations were measured before and after a 12-h incubation by liquid-chromatography-coupled mass spectrometry (LC–MS); conditions: 2 µM
[11] = parabacteroides distasonis, 12 h, 2 µM
Description: The drug is tested on Parabacteroides distasonis strain: ATCC8503 for biotransformation. The drug concentrations were measured before and after a 12-h incubation by liquid-chromatography-coupled mass spectrometry (LC–MS)

[12] = The drug is tested on Bacteroides uniformis strain: ATCC8492 for biotransformation. The drug concentrations were measured before and after a 12-h incubation by liquid-chromatography-coupled mass spectrometry (LC–MS); conditions: 2 µM
[13] = The drug is tested on Collinsella aerofaciens strain: ATCC25986 for biotransformation. The drug concentrations were measured before and after a 12-h incubation by liquid-chromatography-coupled mass spectrometry (LC–MS); conditions: 2 µM
[14] = The drug is tested on Bifidobacterium ruminantium strain: fecal isolate for biotransformation. The drug concentrations were measured before and after a 12-h incubation by liquid-chromatography-coupled mass spectrometry (LC–MS); conditions: 2 µM
[15] = The drug is tested on Odoribacter splanchnicus strain: fecal isolate for biotransformation. The drug concentrations were measured before and after a 12-h incubation by liquid-chromatography-coupled mass spectrometry (LC–MS); conditions: 2 µM
[16] = The drug is tested on Clostridium asparagiforme strain: DSM15981 for biotransformation. The drug concentrations were measured before and after a 12-h incubation by liquid-chromatography-coupled mass spectrometry (LC–MS); format: ADME; design: dose 2 uM, timepoint 0 vs 12 hours; conditions: enterocloster asparagiformis, 2 µM
[17] = parabacteroides johnsonii, 12 h, 2 µM
Description: The drug is tested on Parabacteroides johnsonii strain: DSM18315 for biotransformation. The drug concentrations were measured before and after a 12-h incubation by liquid-chromatography-coupled mass spectrometry (LC–MS)

[18] = The drug is tested on Clostridium sp. strain: fecal isolate for biotransformation. The drug concentrations were measured before and after a 12-h incubation by liquid-chromatography-coupled mass spectrometry (LC–MS); conditions: 2 µM
[19] = bacteroides thetaiotaomicron, 12 h, 2 µM
Description: The drug is tested on Bacteroides thetaiotaomicron strain: 7330 for biotransformation. The drug concentrations were measured before and after a 12-h incubation by liquid-chromatography-coupled mass spectrometry (LC–MS)

[20] = The drug is tested on Alistipes indistinctus strain: DSM22520 for biotransformation. The drug concentrations were measured before and after a 12-h incubation by liquid-chromatography-coupled mass spectrometry (LC–MS); conditions: 2 µM

Structure (SMILES)	Bacterial Biotransformation [1]	Bacterial Biotransformation [2]	Bacterial Biotransformation [3]	Bacterial Biotransformation [4]	Bacterial Biotransformation [5]	Bacterial Biotransformation [6]	Bacterial Biotransformation [7]	Bacterial Biotransformation [8]	Bacterial Biotransformation [9]	Bacterial Biotransformation [10]	Bacterial Biotransformation [11]	Bacterial Biotransformation [12]	Bacterial Biotransformation [13]	Bacterial Biotransformation [14]	Bacterial Biotransformation [15]	Bacterial Biotransformation [16]	Bacterial Biotransformation [17]	Bacterial Biotransformation [18]	Bacterial Biotransformation [19]	Bacterial Biotransformation [20]
CCOC(=O)[C@H](CCc1ccccc1)N[C@@H](C)C(=O)N1CCC[C@H]1C(=O)O.O=C(O)/C=C\C(=O)O [ENALAPRIL MALEATE]	Compound NOT metabolized	Compound NOT metabolized	Compound NOT metabolized	Compound NOT metabolized	Compound NOT metabolized	Compound NOT metabolized	Compound NOT metabolized	Compound NOT metabolized	Compound NOT metabolized	Compound NOT metabolized	Compound NOT metabolized	Compound NOT metabolized	Compound NOT metabolized	Compound NOT metabolized	Compound NOT metabolized	Compound NOT metabolized	–	–	–	–
CCC(C)n1ncn(-c2ccc(N3CCN(c4ccc(OCC5COC(Cn6cncn6)(c6ccc(Cl)cc6Cl)O5)cc4)CC3)cc2)c1=O (stereo unspecified) [ITRACONAZOLE]	Compound NOT metabolized	Compound NOT metabolized	Compound NOT metabolized	Compound NOT metabolized	Compound NOT metabolized	Compound NOT metabolized	Compound NOT metabolized	Compound NOT metabolized	Compound NOT metabolized	Compound NOT metabolized	Compound NOT metabolized	Compound NOT metabolized	Compound NOT metabolized	Compound NOT metabolized	Compound NOT metabolized	Compound NOT metabolized	Compound NOT metabolized	Compound metabolized	Compound NOT metabolized	–
CN1CCN2c3ccccc3Cc3ccccc3C2C1 (stereo unspecified) [MIANSERIN]	Compound NOT metabolized	–	Compound NOT metabolized	Compound NOT metabolized	Compound NOT metabolized	Compound NOT metabolized	Compound NOT metabolized	Compound NOT metabolized	Compound NOT metabolized	Compound NOT metabolized	–	Compound NOT metabolized	Compound NOT metabolized	Compound NOT metabolized	Compound NOT metabolized	Compound NOT metabolized	–	–	Compound NOT metabolized	–
CCN(CC)CCOC(=O)C(Cc1cccc2ccccc12)CC1CCCO1.O=C(O)C(=O)O (stereo unspecified) [NAFRONYL OXALATE]	Compound NOT metabolized	Compound metabolized	Compound NOT metabolized	Compound NOT metabolized	Compound NOT metabolized	Compound NOT metabolized	–	Compound NOT metabolized	Compound NOT metabolized	Compound NOT metabolized	Compound NOT metabolized	Compound metabolized	Compound NOT metabolized	Compound metabolized	Compound metabolized	Compound NOT metabolized	–	–	Compound NOT metabolized	Compound NOT metabolized
C=CCN1CC[C@]23c4c5ccc(O)c4O[C@H]2C(=O)CC[C@@]3(O)[C@H]1C5 [NALOXONE]	–	Compound metabolized	Compound NOT metabolized	Compound metabolized	–	–	Compound NOT metabolized	–	–	Compound NOT metabolized	Compound NOT metabolized	Compound metabolized	Compound NOT metabolized	Compound NOT metabolized	Compound NOT metabolized	Compound NOT metabolized	Compound metabolized	Compound metabolized	Compound metabolized	–
Cc1ccccc1C(OCCN(C)C)c1ccccc1.O=C(O)CC(O)(CC(=O)O)C(=O)O (stereo unspecified) [ORPHENADRINE CITRATE]	Compound NOT metabolized	Compound NOT metabolized	Compound NOT metabolized	Compound NOT metabolized	Compound NOT metabolized	Compound NOT metabolized	–	Compound NOT metabolized	–	Compound NOT metabolized	Compound NOT metabolized	Compound NOT metabolized	Compound NOT metabolized	–	Compound NOT metabolized	Compound NOT metabolized	Compound NOT metabolized	–	Compound NOT metabolized	Compound NOT metabolized
CN(C(=O)CN(CCO)CC(=O)N(C)C(C)(C)Cc1ccccc1)C(C)(C)Cc1ccccc1 [OXETHAZAINE]	Compound NOT metabolized	–	Compound NOT metabolized	Compound NOT metabolized	Compound NOT metabolized	Compound NOT metabolized	–	Compound NOT metabolized	–	Compound NOT metabolized	–	–	Compound NOT metabolized	Compound NOT metabolized	Compound NOT metabolized	Compound NOT metabolized	Compound NOT metabolized	–	Compound NOT metabolized	Compound NOT metabolized
